Results on 11 compounds are retold here after patent US9908896B2, “P38 and JNK MAPK inhibitors for the treatment and prophylaxis of degenerative diseases of the nervous system” (ALLINKY BIOPHARMA, priority 2014, dated 2018).

Each structure is given as a SMILES string.

The target of assay [1] is T1, recombinant activated p38alpha (Homo sapiens, UniProt Q16539).
T1 construct: purchased ProQinase
Briefly: in vitro kinase assay p38 (ADP-Glo). The class given is biochemical. As to conditions: 100 μM ATP; for inhibition at 1 µM: 1 μM compound; for inhibition at 10 µM: 10 μM compound. How it is done: (§1) Purified recombinant activated p38alpha (10 nM)(ProQinase) was preincubated 10 minutes at 30° C. with the compound of interest at concentrations between 1 and 100 μM in duplicate in a final volume of 30 μl of kinase buffer (Hepes 60 mM pH 7.5, MgCl2 3 mM, MnCl2 3 mM, sodium orthovanadate 3 μM, DTT 1.2 mM). After preincubation, peptide substrate (SignalChem #P03-58) and ATP were added to a final concentration of 10 μM and 100 μM respectively, and then incubated 40 minutes at 30° C. for the kinase reaction. Phosphorylation was analysed with ADP-Glo™ (Promega #V9101) and emitted luminescence was measured with BMG Fluostar microplate reader.
(In general: ADP-Glo first removes unused ATP, then detects ADP through luciferase.)

Assay [2] has as its system recombinant activated JNK. The assay is described as follows: in vitro kinase assay JNK (ADP-Glo). The format is biochemical. Conditions: 100 μM ATP; for % of inhibition at 1 μM, JNK: 1 μM compound; for % of inhibition at 10 μM, JNK: 10 μM compound. How it is done:
as §1, with “JNK” for “p38alpha”, “nM) (ProQinase)” for “nM)(ProQinase)”, “analyzed” for “analysed”

The test system of assay [3] is TNF-α secretion by a human monocytic cell line, THP-1. Briefly: Inhibition of TNF-α secretion by LPS-stimulated THP-1 cells (ELISA). The class given is cell-based. Conditions: LPS-stimulated THP-1, TNF-α; for inhibition at 1 µM: 1 μM compound, read-out: % of inhibition at 1 μM, THP1; for inhibition at 10 µM: 10 μM compound, read-out: % of inhibition at 10 μM, THP1. As for the experimental part:
Thp1-Inhibition of TNF-α Secretion by a Human Monocytic Cell Line, THP-1
THP-1 cells, growing in log phase, were collected by centrifugation and resuspended in RPMI 1640 (Sigma Aldrich), to a final cell concentration of 2×10^6 cells/ml. Cells were plated into 24-well plates (BD Biosciences). Dilutions of compounds in dimethyl sulfoxide (DMSO) were added to the culture to a final concentration M. The final DMSO concentration was 0.5%. The cells […] suspensions were preincubated with compounds for 1 h at 37° C. in a 5% CO2 humidified atmosphere before the addition of LPS (Sigma Aldrich, L2654) to a g/ml. After that, cells were incubated for 3 h followed final concentration of […] by centrifugation to pellet cells. Cell supernatants were stored at 4° C. until human analysis for TNF-α content. TNF-α levels were determined by ELISA (TNF Biotrak, GE Healthcare) following the manufacturer's directions. The percentage inhibition was calculated for each compound concentration tested, and the IC50 was calculated for each compound.
Background: In an ELISA, binding on a coated surface is turned into a signal by an enzyme label.

T1 sequence (Q16539 whole entry): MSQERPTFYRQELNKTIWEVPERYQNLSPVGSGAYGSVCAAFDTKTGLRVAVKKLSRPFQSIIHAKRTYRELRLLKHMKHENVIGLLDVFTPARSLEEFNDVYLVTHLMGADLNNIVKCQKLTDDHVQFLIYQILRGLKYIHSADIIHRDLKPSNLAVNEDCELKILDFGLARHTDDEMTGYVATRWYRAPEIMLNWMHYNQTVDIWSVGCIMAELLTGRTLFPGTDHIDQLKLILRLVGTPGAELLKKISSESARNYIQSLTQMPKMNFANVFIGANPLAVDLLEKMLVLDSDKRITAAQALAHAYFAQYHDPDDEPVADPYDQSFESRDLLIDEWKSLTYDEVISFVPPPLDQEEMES

For `CCCOc1cccc(Nc2nc3nonc3nc2N2CCC(Sc3ccc(C)cc3)CC2)c1` [Comp 7], in assay [1], the inhibition at 1 µM worked out at 19% and the inhibition at 10 µM turned out to be 87%. In addition, in assay [2], the “% of inhibition at 1 μM, JNK” value came out at 34% and the “% of inhibition at 10 μM, JNK” value is given as 101%. In addition, in assay [3], the inhibition at 1 µM was determined as 21% and the inhibition at 10 µM came to 33%.

`CCOc1cccc(Nc2nc3nonc3nc2N2CCC(Oc3ccc(Cl)cc3)CC2)c1` [Comp 4]: in assay [1], the inhibition at 1 µM was 25% and the inhibition at 10 µM is 68%. In assay [2], the “% of inhibition at 1 μM, JNK” value turned out to be 31% and the “% of inhibition at 10 μM, JNK” value is given as 74%. Besides, in assay [3], the inhibition at 1 µM amounted to 19% and the inhibition at 10 µM amounted to 41%.

On to `Clc1ccc(OC2CCN(c3nc4nonc4nc3Nc3ccc4occc4c3)CC2)cc1` [Comp 12], for which, in assay [1], the inhibition at 1 µM amounted to 15% and the inhibition at 10 µM is 95%. For the same compound, in assay [2], the “% of inhibition at 1 μM, JNK” value is listed as 24% and the “% of inhibition at 10 μM, JNK” value worked out at 90%. Further, in assay [3], the inhibition at 1 µM turned out to be 45% and the inhibition at 10 µM is 51%.

Turning to `CCCOc1cccc(Nc2nc3nonc3nc2N2CCC(Oc3ccc(Cl)cc3)CC2)c1` [Comp 3], in assay [1], the inhibition at 1 µM came out at 23% and the inhibition at 10 µM came to 100%. Besides, in assay [2], the “% of inhibition at 1 μM, JNK” value was 31% and the “% of inhibition at 10 μM, JNK” value amounted to 96%. In assay [3], the inhibition at 1 µM amounted to 37% and the inhibition at 10 µM worked out at 58%.

As to `CCOc1ccc(Nc2nc3nonc3nc2N2CCC(Oc3ccc(Cl)cc3)CC2)cc1` [Comp 2], in assay [1], the inhibition at 1 µM is 41% and the inhibition at 10 µM turned out to be 87%. In assay [2], the “% of inhibition at 1 μM, JNK” value came to 36% and the “% of inhibition at 10 μM, JNK” value is 91%. In addition, in assay [3], the inhibition at 1 µM worked out at 42% and the inhibition at 10 µM turned out to be 69%.

Regarding `CCCOc1ccc(Nc2nc3nonc3nc2N2CCC(Sc3ccc(C)cc3)CC2)cc1` [Comp 5], in assay [1], the inhibition at 1 µM worked out at 41% and the inhibition at 10 µM worked out at 100%. Also, in assay [2], the “% of inhibition at 1 μM, JNK” value stood at 37% and the “% of inhibition at 10 μM, JNK” value worked out at 97%. In assay [3], the inhibition at 1 µM came out at 44% and the inhibition at 10 µM turned out to be 65%.

Take `Clc1ccc(OC2CCN(c3nc4nonc4nc3Nc3ccc4c(c3)CCO4)CC2)cc1` [Comp 11]: in assay [1], the inhibition at 1 µM came to 21% and the inhibition at 10 µM amounted to 105%. In assay [2], the “% of inhibition at 1 μM, JNK” value is 24% and the “% of inhibition at 10 μM, JNK” value is 74%. In assay [3], the inhibition at 1 µM is 30% and the inhibition at 10 µM came to 50%.

Turning to `CCOc1cccc(Nc2nc3nonc3nc2N2CCC(Sc3ccc(C)cc3)CC2)c1` [Comp 8], in assay [1], the inhibition at 1 µM is 16% and the inhibition at 10 µM was determined as 64%. For the same compound, in assay [2], the “% of inhibition at 1 μM, JNK” value is given as 32% and the “% of inhibition at 10 μM, JNK” value is on record as 55%. Further, in assay [3], the inhibition at 1 µM amounted to 17% and the inhibition at 10 µM is 37%.

With `CCOc1ccc(Nc2nc3nonc3nc2N2CCN(Cc3ccc(Cl)cc3)CC2)cc1` [Comp 10], in assay [1], the inhibition at 1 µM was 25% and the inhibition at 10 µM was determined as 52%. Further, in assay [2], the “% of inhibition at 1 μM, JNK” value is reported as 30% and the “% of inhibition at 10 μM, JNK” value amounted to 50%. Moreover, in assay [3], the inhibition at 1 µM worked out at 19% and the inhibition at 10 µM turned out to be 31%.

Turning to `CCOc1ccc(Nc2nc3nonc3nc2N2CCC(Sc3ccc(C)cc3)CC2)cc1` [Comp 6], in assay [1], the inhibition at 1 µM turned out to be 32% and the inhibition at 10 µM was 95%. Besides, in assay [2], the “% of inhibition at 1 μM, JNK” value was determined as 35% and the “% of inhibition at 10 μM, JNK” value came out at 91%. Further, in assay [3], the inhibition at 1 µM was 28% and the inhibition at 10 µM came to 39%.

For the compound `CCCOc1ccc(Nc2nc3nonc3nc2N2CCN(Cc3ccc(Cl)cc3)CC2)cc1` [Comp 9], in assay [1], the inhibition at 1 µM worked out at 23% and the inhibition at 10 µM turned out to be 68%. For the same compound, in assay [2], the “% of inhibition at 1 μM, JNK” value is given as 26% and the “% of inhibition at 10 μM, JNK” value was found to be 51%. Also, in assay [3], the inhibition at 1 µM was 27% and the inhibition at 10 µM is 39%.

In general, inhibition refers to the change of the read-out against control, counted positive when it falls.
